Marks after values point to notes of the source that are not given here.
Legend:
Calu-6 NSCLC xenograft = assay: Calu-6 flank xenograft model, tumor growth delay; assay type: in vivo, nu/nu mice
Description: Female nu/nu mice (Charles River Labs.) were injected subcutaneously with 0.25 mL of 5×10^6 Calu-6 cells (1:1 with matrigel) on study day 0. The human Calu-6 cells were obtained from a tumor homogenate from previously inoculated donor mice. The cellular implantation site was the right thigh, and all mice were ear tagged. On day 10, tumors were size matched to approximately 170 mm^3 and were placed into the therapy groups outlined in the study design below. The tumors were measured with calipers 2-3 times per week after tumors were palpable. Tumor volume were calculated according to the formula V=L×W^2/2 (V: volume, mm^3; L: length, mm. W: width, mm). The mice were humanely euthanized when the tumor volumes reached a predetermined size. The study design was as follows:
ABT-751 was formulated in 1% HCl, 4% ethanol, and 95% D5W while pemetrexed was formulated in normal saline.
Study group treatments are defined in Table 1.

[1] = system: thymidine kinase minus human colon carcinoma xenograft (GC3 TK-); assay: GC3 TK- flank xenograft model, tumor growth delay; assay type: in vivo, nu/nu mice
Description: nu/nu female mice (Charles Rivers Labs) were injected subcutaneously with 0.2 mL of 5×10^6 GC3TK-100c3 cells (1:1 matrigel) on study day 0. […] The cellular implantation site was the right flank, and all mice were ear tagged. Tumors were size matched to 205 mm^3, and animals were placed into the therapy groups shown in the study design below (Table 3). The tumors were measured with calipers 2 times per week after tumors were palpable. The mice were humanely euthanized when the tumor volumes reached a predetermined size. The study design was as follows: [table]

[2] = system: thymidine kinase minus human colon carcinoma xenograft (GC3 TK-); details: Schultz, 1999; cited from earlier work

Structure (SMILES) | Mean % TGD (tumor growth delay) increase compared to vehicle in time to 1.5 cc tumor (Calu-6 NSCLC xenograft; Group 1: ABT-751 100 mg/kg p.o. Days 10-14 and 20-24, plus pemetrexed vehicle) | Mean % TGD (tumor growth delay) increase compared to vehicle in time to 1.5 cc tumor (Calu-6 NSCLC xenograft; Group 6: ABT-751 100 mg/kg p.o. Days 15-19 and 25-29, plus pemetrexed vehicle) | Median % TGD (tumor growth delay) increase compared to vehicle in time to 0.75 cc tumor ([1]; Group 1: ABT-751 100 mg/kg p.o. Days 38-42 and 48-52, plus pemetrexed vehicle) | Mean % TGD (tumor growth delay) increase compared to vehicle in time to 1.5 cc tumor (Calu-6 NSCLC xenograft; Group 2: pemetrexed 150 mg/kg i.p. Days 10-14 and 20-24, plus ABT-751 vehicle) | Mean % TGD (tumor growth delay) increase compared to vehicle in time to 1.5 cc tumor (Calu-6 NSCLC xenograft; Group 4: pemetrexed 150 mg/kg i.p. Days 15-19 and 25-29, plus ABT-751 vehicle) | Median % TGD (tumor growth delay) increase compared to vehicle in time to 0.75 cc tumor ([1]; Group 2: pemetrexed 150 mg/kg i.p. Days 38-42, plus ABT-751 vehicle) | Median % TGD (tumor growth delay) increase compared to vehicle in time to 0.75 cc tumor ([1]; Group 3: pemetrexed 150 mg/kg i.p. Days 43-47, plus ABT-751 vehicle) | sensitivity in the thymidine kinase-deficient GC3 model [2]
COc1ccc(S(=O)(=O)Nc2cccnc2Nc2ccc(O)cc2)cc1 [ABT-751, N-(2-((4-Hydroxyphenyl)amino)pyridin-3-yl)-4-methoxybenzenesulfonamide] | 18.0***^b % | 18.0*** % | 0.0% |  |  |  |  | 
Nc1nc2[nH]cc(CCc3ccc(C(=O)N[C@@H](CCC(=O)O)C(=O)O)cc3)c2c(=O)[nH]1 [pemetrexed] |  |  |  | 11.1** % | 5.6* % | 14.8% | 30.7*^b % | quite sensitive
